Entries after “also recorded” stand apart in the source; their conditions may differ.
Key:
LNCaP cells = experiment: Western blot analysis of apoptosis in LNCaP cells; assay type: cell-based; details: whole medium, 24 h
Experimental: Experiments were in duplicate and repeated three times. […] LNCaP cells in whole medium were exposed to DMSO vehicle control or compounds for 24 h.

WT full-length AR = biological target: T1, WT full-length AR (Homo sapiens, UniProt P10275); experiment: WT full-length AR PSA-luc reporter assay (DHT-induced) in transfected cells; details: 24 h; for inhibition of DHT-induced activation of WT full-length AR (PSA-luc): 10 nM DHT; for agonism of full-length AR WT (PSA-luc): absence of DHT, PC3 cells
T1 sequence (P10275 1-920): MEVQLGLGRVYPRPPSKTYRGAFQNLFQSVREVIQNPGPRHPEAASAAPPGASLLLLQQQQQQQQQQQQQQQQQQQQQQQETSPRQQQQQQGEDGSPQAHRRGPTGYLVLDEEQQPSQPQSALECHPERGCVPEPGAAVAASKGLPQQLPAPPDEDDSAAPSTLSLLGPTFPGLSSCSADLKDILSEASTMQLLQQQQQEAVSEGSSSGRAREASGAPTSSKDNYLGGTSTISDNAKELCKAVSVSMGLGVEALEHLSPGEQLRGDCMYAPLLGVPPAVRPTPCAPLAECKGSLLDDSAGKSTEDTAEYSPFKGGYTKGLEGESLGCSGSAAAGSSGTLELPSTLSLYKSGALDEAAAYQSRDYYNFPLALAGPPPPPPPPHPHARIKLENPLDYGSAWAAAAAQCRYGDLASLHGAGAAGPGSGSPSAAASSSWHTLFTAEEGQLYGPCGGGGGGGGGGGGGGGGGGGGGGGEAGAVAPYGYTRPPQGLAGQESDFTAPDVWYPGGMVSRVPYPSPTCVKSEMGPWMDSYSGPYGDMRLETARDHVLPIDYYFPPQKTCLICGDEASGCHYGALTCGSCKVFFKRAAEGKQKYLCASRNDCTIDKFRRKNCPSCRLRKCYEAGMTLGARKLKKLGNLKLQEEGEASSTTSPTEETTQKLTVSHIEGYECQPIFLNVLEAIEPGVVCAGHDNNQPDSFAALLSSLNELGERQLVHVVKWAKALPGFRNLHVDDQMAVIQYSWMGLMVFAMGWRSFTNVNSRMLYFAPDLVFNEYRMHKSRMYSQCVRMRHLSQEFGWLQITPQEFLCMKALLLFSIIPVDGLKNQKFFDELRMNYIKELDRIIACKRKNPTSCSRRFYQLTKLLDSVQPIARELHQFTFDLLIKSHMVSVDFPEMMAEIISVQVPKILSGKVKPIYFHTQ

AR-v7 in LNCaP cells = biological target: T2, AR-v7 in LNCaP cells (Homo sapiens, UniProt P10275); experiment: PSA-luc reporter assay in LNCaP cells transiently transfected with pIRES-AR-v7; details: 24 h
T2 sequence (P10275 1-644 isoform P10275-3): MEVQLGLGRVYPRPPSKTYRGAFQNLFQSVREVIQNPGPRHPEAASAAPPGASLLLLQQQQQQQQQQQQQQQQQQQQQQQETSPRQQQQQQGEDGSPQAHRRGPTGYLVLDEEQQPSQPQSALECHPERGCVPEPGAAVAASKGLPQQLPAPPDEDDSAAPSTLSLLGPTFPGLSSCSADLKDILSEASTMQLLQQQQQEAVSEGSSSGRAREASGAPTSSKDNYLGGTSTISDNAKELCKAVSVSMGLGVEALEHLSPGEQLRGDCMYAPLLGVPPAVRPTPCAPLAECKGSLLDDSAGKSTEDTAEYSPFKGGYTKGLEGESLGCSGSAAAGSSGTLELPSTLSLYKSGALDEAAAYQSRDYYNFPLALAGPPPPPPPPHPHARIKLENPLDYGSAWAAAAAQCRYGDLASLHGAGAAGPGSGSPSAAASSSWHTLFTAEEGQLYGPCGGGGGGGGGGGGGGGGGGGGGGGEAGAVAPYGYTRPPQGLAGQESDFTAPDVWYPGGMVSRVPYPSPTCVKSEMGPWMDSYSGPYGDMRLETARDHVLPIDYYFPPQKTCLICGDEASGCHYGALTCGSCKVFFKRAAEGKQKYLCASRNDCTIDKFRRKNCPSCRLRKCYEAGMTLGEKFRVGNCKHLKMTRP
Experimental: NT, LNCaP cells were transiently transfected with pIRES vector, PSA-luc and pRL-TK. […] Cells were then transiently transfected with PSA-Luc and pRL-TK and exposed to DMSO or compounds for 24 h, in triplicate.

VP16-AR(507-919) = VP16-AR(507-919) (NTD-deleted) PSA-luc reporter assay; details: 10 nM DHT, 24 h; PC3 or HEK293 cells
full-length IRF3 = biological target: T3, full-length IRF3 (Homo sapiens, UniProt Q14653); experiment: Full-length IRF3 ISRE-luc reporter assay; assay type: cell-based; details: PC3 cells, 24 h
T3 construct: co-transfected with full-length IRF3 or IRF3DBD-AR(1-547) expressing plasmids; expressed in transfected cells
T3 sequence (Q14653 1-427): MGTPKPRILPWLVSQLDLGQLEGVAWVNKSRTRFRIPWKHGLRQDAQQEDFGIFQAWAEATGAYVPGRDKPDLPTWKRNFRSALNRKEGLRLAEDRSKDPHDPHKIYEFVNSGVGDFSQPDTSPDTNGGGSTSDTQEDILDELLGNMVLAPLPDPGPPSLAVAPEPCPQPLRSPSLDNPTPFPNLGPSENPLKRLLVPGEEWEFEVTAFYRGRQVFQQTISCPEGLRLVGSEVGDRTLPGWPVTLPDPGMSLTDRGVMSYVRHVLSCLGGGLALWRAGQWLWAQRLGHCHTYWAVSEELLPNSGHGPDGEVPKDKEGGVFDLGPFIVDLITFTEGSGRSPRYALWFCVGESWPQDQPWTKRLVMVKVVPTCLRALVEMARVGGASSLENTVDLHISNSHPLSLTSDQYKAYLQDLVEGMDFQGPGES
Source text: For all of the others, cells were co-transfected with full-length IRF3 or IRF3DBD-AR(1-547) expressing plasmids and with the ISRE-luc reporter and pRL-TK plasmids. […] As IRF3DBD-AR(1-547) contains the DBD of IRF3, ISRE-luc reporter instead of the PSA-luc reporter was used in our assays.
HEK293 cells were co-transfected with IRF3DBD(1-133) or IRF3DBD-AR(1-547) or IRF3DBD-AR(181-547) or full-length IRF3 expressing plasmids and with the ISRE-luc reporter and the Renilla luciferase pRL-TK plasmids.
Here, IRF3-AR(1-547) is the fusion of IRF3 DBD with the AR NTD (1-547). […] The plasmids expressing IRF3-AR(1-547) (A) or wild-type IRF3 (B) or IRF3 DBD (for NT) as well as ISRE-luc and pRL-TK were transiently transfected into PC3 cells. […] Bic, bicalutamide; EPI, EPI-001.

Row | SMILES | apoptosis in LNCaP cells (LNCaP cells) | inhibition of DHT-induced activation of WT full-length AR (PSA-luc) (WT full-length AR) | agonism of full-length AR WT (PSA-luc) (WT full-length AR) | activity in LNCaP cells with forced expression of AR-v7 (PSA-luc) (AR-v7 in LNCaP cells) | inhibition of DHT-induced activation of VP16-AR(507-919) (PSA-luc) (VP16-AR(507-919)) | activity against wild-type IRF3 (ISRE-luc) (full-length IRF3)
1 | O=C(Nc1cccc(C(F)(F)F)c1)Nc1ccc([N+](=O)[O-])c(C(F)(F)F)c1 [Compound 442] | induced apoptosis | dose-dependently suppressed; also recorded: dose-dependently inhibit | non-agonist |  |  | 
2 | N#Cc1ccc(NC(=O)Nc2cccc(C(F)(F)F)c2)cc1C(F)(F)F [Compound 467] | induced apoptosis | dose-dependently suppressed; also recorded: dose-dependently inhibit | non-agonist |  |  | 
3 | N#Cc1ccc(NC(=O)Nc2cccc(C(F)(F)F)c2)cc1Cl [Compound 492] |  | dose-dependently suppressed; also recorded: dose-dependently inhibit | non-agonist |  |  | 
4 | O=C(N/C=C/c1cccc(C(F)(F)F)c1)Nc1ccncn1 [Compound 562] |  | dose-dependently inhibit |  | remain active | inactive | inactive
5 | O=C(Nc1cccc(C(F)(F)F)c1)Nc1ccc(NC(=O)c2ccccc2F)c(C(F)(F)F)c1 [Compound 746] |  | dose-dependently inhibit |  | remain active | inactive | inactive
